Experimental data from patent publication US11708344B2, “Flavone derivatives for the treatment and prophylaxis of hepatitis B virus disease” (Hoffmann-La Roche Inc., priority 2018, dated 2023).

Test system: cccDNA in HepDES19 cells
Test: cccDNA Southern Blot assay
Assay type: cell-based, HBV
Settings: 5 days' compound treatment, FIG. 1
Method: HepDES19 cells were seeded at 4*10^6 cells per T150 in the culture medium (Dulbecco's Modified Eagle Medium: Nutrient Mixture F-12 [DMEM-F12, Gibco Cat. 11320-82], 10% Fetal Bovine Serum [FBS, Clontech Cat. 631101], 0.1 mM Non-Essential Amino Acids Solution [NEAA, Gibco Cat. 11140-050], 50 μg/mL Penicillin-Streptomycin [PS, Invitrogen Cat. 15140-163], 500 μg/mL Geneticin [G418, Invitrogen Cat. 10131-027]) in the absence of Tet for 8 days. These cells were seeded at the density of 1×10^6 cells per well in 6-well plate. At 24 hours after seeding, serial dilutions of compounds made with DMSO (Sigma, Cat. D2650) were further diluted with the same culture medium as described above before they were added to the cells to reach desired final compound concentrations and 1% DMSO concentration. After 5 days' compound treatment, the cells growing in one well from 6-well plate were re-suspended with 500 μL re-suspension buffer (50 mM tris [hydroxymethyl]amino methane pH 7.5), 10 mM ethylenediaminetetraacetic acid (EDTA), 50 μg/mL RNase A [Qiagen, Cat. 158922], 500 μL of 1.2% sodium dodecyl sulfate (SDS) was then added into the re-suspended cells to lyse the cells. After 15 minutes' incubation, 700 μL precipitation buffer (3M cesium chloride, 1M potassium acetate, 0.67M acetic acid) was added and the lysate was incubated at 4° C. for 2 h. […]

SMILES: O=c1cc(-c2ccc(Br)cc2OCCO[C@H]2C[C@@H](C(=O)O)C2)oc2c(Cl)cccc12 [Example C003-A, Cis-3-[2-[5-bromo-2-(8-chloro-4-oxo-chromen-2-yl)phenoxy]ethoxy]cyclobutanecarboxylic acid]
- cccDNA level (Southern Blot): dose-dependently reduced cccDNA level
